US8778941B2, “TRPM8 antagonists and their use in treatments” (AMGEN Inc., priority 2011, dated 2014)

These compounds were tested against T1, human TRPM8 (Homo sapiens, UniProt Q7Z2W7) (assay: Luminescence readout assay for measuring intracellular calcium (aequorin), hTRPM8 antagonism). Conditions: CHO cell line expressing human TRPM8 and aequorin; activation by icilin, L-menthol or cold buffer (table does not say which).
T1 construct: expressed in transfected cells; host or cells: Chinese hamster ovary (CHO) cells, T-REx tetracycline-inducible expression system (Invitrogen), co-transfected with pcDNA3.1 jellyfish aequorin
Type: cell-based

T1 sequence (Q7Z2W7 whole entry): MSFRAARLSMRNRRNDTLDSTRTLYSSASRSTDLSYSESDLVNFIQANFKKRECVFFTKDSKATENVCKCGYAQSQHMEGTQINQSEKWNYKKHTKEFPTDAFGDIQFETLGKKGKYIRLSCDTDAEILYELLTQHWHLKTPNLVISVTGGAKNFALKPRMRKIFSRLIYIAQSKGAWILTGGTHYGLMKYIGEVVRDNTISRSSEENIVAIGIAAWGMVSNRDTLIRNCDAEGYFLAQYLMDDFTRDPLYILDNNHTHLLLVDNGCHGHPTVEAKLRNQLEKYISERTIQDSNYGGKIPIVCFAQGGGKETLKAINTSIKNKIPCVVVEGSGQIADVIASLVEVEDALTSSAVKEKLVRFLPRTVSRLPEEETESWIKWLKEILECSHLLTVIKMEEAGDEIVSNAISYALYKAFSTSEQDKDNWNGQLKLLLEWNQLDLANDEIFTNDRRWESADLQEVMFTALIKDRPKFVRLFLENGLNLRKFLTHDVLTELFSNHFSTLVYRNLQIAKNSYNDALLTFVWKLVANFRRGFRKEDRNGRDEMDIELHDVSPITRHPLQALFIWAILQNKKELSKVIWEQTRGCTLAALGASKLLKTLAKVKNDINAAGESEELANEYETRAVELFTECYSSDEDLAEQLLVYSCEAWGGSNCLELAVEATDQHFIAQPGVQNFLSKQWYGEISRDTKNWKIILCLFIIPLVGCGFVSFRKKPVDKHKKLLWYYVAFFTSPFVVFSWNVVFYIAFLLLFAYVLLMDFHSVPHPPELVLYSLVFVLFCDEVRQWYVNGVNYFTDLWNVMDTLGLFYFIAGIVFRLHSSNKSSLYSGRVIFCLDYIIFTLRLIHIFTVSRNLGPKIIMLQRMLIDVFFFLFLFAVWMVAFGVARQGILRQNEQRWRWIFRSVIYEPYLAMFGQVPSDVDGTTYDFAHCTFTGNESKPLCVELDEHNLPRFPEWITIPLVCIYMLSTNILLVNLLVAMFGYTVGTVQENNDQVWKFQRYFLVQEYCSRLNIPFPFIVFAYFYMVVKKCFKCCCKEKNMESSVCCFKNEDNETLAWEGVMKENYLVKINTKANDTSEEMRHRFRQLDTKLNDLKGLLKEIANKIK

With `O=C(NC1CCN(C(=O)OCc2ccccc2)CC1)N[C@@H](c1ccc(C(F)(F)F)cc1)c1ncccc1C(F)(F)F` [Example 75, (S)-benzyl 4-(3-((4-(trifluoro-methyl)-phenyl)(3-(trifluoro-methyl)-pyridin-2-yl)-methyl)-ureido)-piperidine-1-carboxylate (2,2,2-trifluoro-acetate)] as the compound, how does the IC50 read?
Its IC50 is 0.67 µM.

With `CC[C@H](C)C(NC(=O)N[C@@H](c1ccc(C(F)(F)F)cc1)c1ncccc1C(F)(F)F)C(=O)OC` (stereo partly drawn) [Example 99, (3S)-methyl 3-methyl-2-(3-((S)-(4-(trifluoro-methyl)-phenyl)(3-(trifluoro-methyl)-pyridin-2-yl)-methyl)-ureido)-pentanoate (2,2,2-trifluoro-acetate)] as the compound, how does the IC50 read?
Its IC50 is 0.712 µM.

For `O=C(NC1CCOC1)N[C@@H](c1ccc(C(F)(F)F)cc1)c1ncccc1C(F)(F)F` (stereo partly drawn) [Example 56, 1-(tetrahydrofuran-3-yl)-3-((S)-(4-(trifluoro-methyl)-phenyl)(3-(trifluoro-methyl)-pyridin-2-yl)-methyl)urea], which IC50 is on record?
Its IC50 is 0.676 µM.

For `Cc1noc(C)c1NC(=O)N[C@@H](c1ccc(C(F)(F)F)cc1)c1ncccc1C(F)(F)F` [Example 55, (S)-1-(3,5-dimethylisoxazol-4-yl)-3-((4-(trifluoro-methyl)-phenyl)(3-(trifluoro-methyl)-pyridin-2-yl)-metyl)urea], which IC50 is on record?
Its IC50 is 0.05 µM.

`COc1ccc([C@H](C)NC(=O)N[C@@H](c2ccc(C(F)(F)F)cc2)c2ncccc2C(F)(F)F)cc1` [Example 80, 1-((S)-1-(4-methoxy-phenyl)ethyl)-3-((S)-(4-(trifluoro-methyl)-phenyl)(3-(trifluoro-methyl)-pyridin-2-yl)-methyl)urea (2,2,2-trifluoro-acetate)] was tested. Which IC50 did it give?
The IC50 was 0.399 µM.

Which IC50 does the source give for `CCOC(=O)N[C@@H](c1ccc(C(F)(F)F)cc1)c1ncccc1C(F)(F)F` [Example 170, (S)-Ethyl((4-(trifluoromethyl)phenyl)(3-(trifluoromethyl)-pyridin-2-yl)methyl)carbamate] here?
The IC50 was 0.147 µM.

Which IC50 does the source give for `COc1cc(CNC(=O)N[C@@H](c2ccc(C(F)(F)F)cc2)c2ncccc2C(F)(F)F)cc(OC)c1OC` [Example 111, (S)-1-((4-(trifluoro-methyl)-phenyl)(3-(trifluoro-methyl)-pyridin-2-yl)-methyl)-3-(3,4,5-trimethoxy-benzyl)urea (2,2,2-trifluoro-acetate)] here?
The IC50 was 2.38 µM.

How did the IC50 turn out when `O=C(Nc1cccc(Br)c1)N[C@@H](c1ccc(C(F)(F)F)cc1)c1ncccc1C(F)(F)F` [Example 37, (S)-1-(3-bromophenyl)-3-((4-(trifluoro-methyl)-phenyl)(3-(trifluoro-methyl)-pyridin-2-yl)-methyl)urea (2,2,2-trifluoro-acetate)] was run?
The IC50 was 4.08 µM.

How did the IC50 turn out when `C[C@H](NC(=O)N[C@@H](c1ccc(C(F)(F)F)cc1)c1ncccc1C(F)(F)F)c1ccccc1` [Example 107, 1-((S)-1-phenylethyl)-3-((S)-(4-(trifluoro-methyl)-phenyl)(3-(trifluoro-methyl)-pyridin-2-yl)-methyl)urea (2,2,2-trifluoro-acetate)] was run?
Its IC50 is 0.123 µM.

`O=C(Nc1cccnc1)N[C@@H](c1ccccc1)c1ncccc1C(F)(F)F` [Example 20, (S)-1-(phenyl(3-(trifluoro-methyl)-pyridin-2-yl)-methyl)-3-(pyridin-3-yl)-urea] was tested. Which IC50 did it give?
The IC50 was 1.31 µM.

With `O=C(Nc1cccnc1)NC(c1ccc(F)c(C(F)(F)F)c1)c1ncccc1C(F)(F)F` (stereo not drawn) [Example 21, 1-((4-fluoro-3-(trifluoro-methyl)-phenyl)(3-(trifluoro-methyl)-pyridin-2-yl)-methyl)-3-(pyridin-3-yl)-urea (2,2,2-trifluoro-acetate)] as the compound, how does the IC50 read?
Its IC50 is 0.178 µM.

`COc1cc(NC(=O)N[C@@H](c2ccc(C(F)(F)F)cc2)c2ncccc2C(F)(F)F)cc(OC)c1OC` [Example 112, (S)-1-((4-(trifluoro-methyl)-phenyl)(3-(trifluoro-methyl)-pyridin-2-yl)-methyl)-3-(3,4,5-trimethoxy-phenyl)urea (2,2,2-trifluoro-acetate)] was tested. Which IC50 did it give?
The IC50 was 0.287 µM.

With `O=C(Nc1cccc(I)c1)N[C@@H](c1ccc(C(F)(F)F)cc1)c1ncccc1C(F)(F)F` [Example 124, (S)-1-(3-iodophenyl)-3-((4-(trifluoro-methyl)-phenyl)(3-(trifluoro-methyl)-pyridin-2-yl)-methyl)urea (2,2,2-trifluoro-acetate)] as the compound, how does the IC50 read?
Its IC50 is 0.708 µM.

With `CC(C)NC(=O)N[C@@H](c1ccc(C(F)(F)F)cc1)c1ncccc1C(F)(F)F` [Example 32, (S)-1-isopropyl-3-((4-(trifluoro-methyl)-phenyl)(3-(trifluoro-methyl)-pyridin-2-yl)-methyl)urea] as the compound, how does the IC50 read?
Its IC50 is 0.066 µM.

With `CCCCOC(=O)CNC(=O)N[C@@H](c1ccc(C(F)(F)F)cc1)c1ncccc1C(F)(F)F` [Example 104, (S)-butyl 2-(3-((4-(trifluoro-methyl)-phenyl)(3-(trifluoro-methyl)-pyridin-2-yl)-methyl)-ureido)acetate (2,2,2-trifluoro-acetate)] as the compound, how does the IC50 read?
The IC50 was 0.604 µM.

`COc1ncc(NC(=O)N[C@@H](c2ccc(C(F)(F)F)cc2)c2ncccc2C(F)(F)F)cn1` [Example 159, (S)-1-(2-Methoxypyrimidin-5-yl)-3-((4-(trifluoromethyl)-phenyl)(3-(trifluoromethyl)pyridin-2-yl)methyl)urea] was tested. Which IC50 did it give?
Its IC50 is 0.407 µM.

How did the IC50 turn out when `CC#Cc1cccnc1[C@@H](NC(=O)N[C@@H](C)C(F)(F)F)c1ccc(C(F)(F)F)cc1` [Example 150, 1-((S)-(3-(prop-1-yn-1-yl)pyridin-2-yl)(4-(trifluoro-methyl)-phenyl)-methyl)-3-((S)-1,1,1-trifluoro-propan-2-yl)-urea] was run?
The IC50 was 0.048 µM.

For `O=C(Nc1cccnc1)N[C@@H](c1ccc(OC(F)(F)F)c(F)c1)c1ncccc1F` [Example 188, (S)-1-((3-fluoro-4-(trifluoro-methoxy)phenyl) (3-fluoropyridin-2-yl)methyl)-3-(pyridin-3-yl) urea], which IC50 is on record?
Its IC50 is 0.007 µM.

`COc1ccc(C)cc1NC(=O)N[C@@H](c1ccc(C(F)(F)F)cc1)c1ncccc1C(F)(F)F` [Example 183, (S)-1-(2-methoxy-5-methylphenyl)-3-((4-(trifluoro-methyl)phenyl) (3-(trifluoro-methyl)pyridin-2-yl)methyl)urea (2,2,2-trifluoro-acetate)] was tested. Which IC50 did it give?
The IC50 was 0.56 µM.

Which IC50 does the source give for `O=C(NC1CCCc2ccccc21)N[C@@H](c1ccc(C(F)(F)F)cc1)c1ncccc1C(F)(F)F` (stereo partly drawn) [Example 185, 1-(1,2,3,4-tetrahydro-naphthalen-1-yl)-3-((S)-(4-(trifluoromethyl)phenyl)(3-(trifluoromethyl)pyridin-2-yl)methyl)urea (2,2,2-trifluoro-acetate)] here?
The IC50 was 0.739 µM.

`CCOC(=O)NC(=O)N[C@@H](c1ccc(C(F)(F)F)cc1)c1ncccc1C(F)(F)F` [Example 81] was tested. Which IC50 did it give?
The IC50 was 0.496 µM.

For `O=C(Nc1cccnc1)N[C@@H](c1ccc(Cl)cc1)c1ncccc1C(F)(F)F` [Example 26, (S)-1-((4-chlorophenyl)-(3-(trifluoro-methyl)-pyridin-2-yl)-methyl)-3-(pyridin-3-yl)-urea], which IC50 is on record?
Its IC50 is 0.248 µM.

How did the IC50 turn out when `O=C(NCc1ccc(Cl)c(Cl)c1)N[C@@H](c1ccc(C(F)(F)F)cc1)c1ncccc1C(F)(F)F` [Example 184, (S)-1-(3,4-dichlorobenzyl)-3-((4-(trifluoro-methyl)phenyl) (3-(trifluoro-methyl)pyridin-2-yl)methyl)urea (2,2,2-trifluoro-acetate)] was run?
Its IC50 is 0.583 µM.

With `COc1cccc([C@H](NC(=O)Nc2cccnc2)c2ncccc2C(F)(F)F)c1` [Example 4, (S)-1-((3-methoxy-phenyl)(3-(trifluoro-methyl)-pyridin-2-yl)-methyl)-3-(pyridin-3-yl)-urea] as the compound, how does the IC50 read?
The IC50 was 1.23 µM.

How did the IC50 turn out when `Cc1noc(-c2ccccc2)c1NC(=O)N[C@@H](c1ccc(C(F)(F)F)cc1)c1ncccc1C(F)(F)F` [Example 69, (S)-1-(3-methyl-5-phenylisoxazol-4-yl)-3-((4-(trifluoro-methyl)-phenyl)(3-(trifluoro-methyl)-pyridin-2-yl)-methyl)urea (2,2,2-trifluoro-acetate)] was run?
The IC50 was 0.777 µM.

Which IC50 does the source give for `CC(C)(C)CC(C)(C)NC(=O)N[C@@H](c1ccc(C(F)(F)F)cc1)c1ncccc1C(F)(F)F` [Example 131, (S)-1-((4-(trifluoro-methyl)-phenyl)(3-(trifluoro-methyl)-pyridin-2-yl)-methyl)-3-(2,4,4-trimethylpentan-2-yl)urea (2,2,2-trifluoro-acetate)] here?
Its IC50 is 0.666 µM.

For `CC(C)(C)OC(=O)N[C@@H](c1ccc(OC(F)(F)F)c(F)c1)c1ncccc1F` [Example 174, (S)-tert-Butyl((3-fluoro-4-(trifluoromethoxy)phenyl)(3-fluoropyridin-2-yl)methyl)carbamate], which IC50 is on record?
The IC50 was 0.474 µM.

`O=C(Nc1cccnc1)N[C@@H](c1ccc2ccccc2c1)c1ncccc1C(F)(F)F` [Example 11] was tested. Which IC50 did it give?
Its IC50 is 0.101 µM.

Which IC50 does the source give for `CC#Cc1cccnc1[C@@H](NC(=O)NC(C)(C)C)c1ccc(C(F)(F)F)cc1` [Example 42, (S)-1-(tert-butyl)-3-((3-(prop-1-yn-1-yl)pyridin-2-yl)(4-(trifluoro-methyl)-phenyl)-methyl)urea] here?
Its IC50 is 0.107 µM.

Which IC50 does the source give for `O=C(Nc1cccnc1)N[C@@H](c1ccc(F)cc1)c1ncccc1C(F)(F)F` [Example 19, (S)-((4-fluorophenyl)-(3-(trifluoro-methyl)-pyridin-2-yl)-methyl)-3-(pyridin-3-yl)-urea] here?
Its IC50 is 0.382 µM.

With `O=C(Nc1cccnc1)N[C@@H](c1ccc(C(F)(F)F)cc1)c1ncccc1Br` [Example 28, (S)-1-((3-bromopyridin-2-yl)(4-(trifluoro-methyl)-phenyl)-methyl)-3-(pyridin-3-yl)-urea] as the compound, how does the IC50 read?
Its IC50 is 0.067 µM.

With `COc1ccc([C@@H](C)NC(=O)N[C@@H](c2ccc(C(F)(F)F)cc2)c2ncccc2C(F)(F)F)cc1` [Example 130, 1-((R)-1-(4-methoxy-phenyl)ethyl)-3-((S)-(4-(trifluoro-methyl)-phenyl)(3-(trifluoro-methyl)-pyridin-2-yl)-methyl)urea (2,2,2-trifluoro-acetate)] as the compound, how does the IC50 read?
Its IC50 is 3.79 µM.

For `C[C@H](NC(=O)N[C@@H](c1ccc(C(F)(F)F)cc1)c1ccccc1Br)C(F)(F)F` [Example 154, 1-((S)-(2-bromophenyl) (4-(trifluoro-methyl)-phenyl)-methyl)-3-((S)-1,1,1-trifluoro-propan-2-yl)-urea], which IC50 is on record?
The IC50 was 0.9 µM.
